21 compounds from ChEMBL document CHEMBL5316343, “Design, Synthesis, and Biological Evaluation of a Potent Dual EZH2-BRD4 Inhibitor for the Treatment of Some Solid Tumors” (J Med Chem, 2023) can be followed below.

By IC50 is commonly meant the concentration at which inhibition is half-maximal.

Assay [1] has as its target Histone-lysine N-methyltransferase EZH2 (Homo sapiens, UniProt Q15910). Description: Inhibition of EZH2 (unknown origin) by radiometric assay.
For assay [2], the target named is Bromodomain-containing protein 4 (Homo sapiens, UniProt O60885). Description: Inhibition of BRD4 (unknown origin) by HTRF analysis.

Chain of Histone-lysine N-methyltransferase EZH2 (Q15910 whole entry): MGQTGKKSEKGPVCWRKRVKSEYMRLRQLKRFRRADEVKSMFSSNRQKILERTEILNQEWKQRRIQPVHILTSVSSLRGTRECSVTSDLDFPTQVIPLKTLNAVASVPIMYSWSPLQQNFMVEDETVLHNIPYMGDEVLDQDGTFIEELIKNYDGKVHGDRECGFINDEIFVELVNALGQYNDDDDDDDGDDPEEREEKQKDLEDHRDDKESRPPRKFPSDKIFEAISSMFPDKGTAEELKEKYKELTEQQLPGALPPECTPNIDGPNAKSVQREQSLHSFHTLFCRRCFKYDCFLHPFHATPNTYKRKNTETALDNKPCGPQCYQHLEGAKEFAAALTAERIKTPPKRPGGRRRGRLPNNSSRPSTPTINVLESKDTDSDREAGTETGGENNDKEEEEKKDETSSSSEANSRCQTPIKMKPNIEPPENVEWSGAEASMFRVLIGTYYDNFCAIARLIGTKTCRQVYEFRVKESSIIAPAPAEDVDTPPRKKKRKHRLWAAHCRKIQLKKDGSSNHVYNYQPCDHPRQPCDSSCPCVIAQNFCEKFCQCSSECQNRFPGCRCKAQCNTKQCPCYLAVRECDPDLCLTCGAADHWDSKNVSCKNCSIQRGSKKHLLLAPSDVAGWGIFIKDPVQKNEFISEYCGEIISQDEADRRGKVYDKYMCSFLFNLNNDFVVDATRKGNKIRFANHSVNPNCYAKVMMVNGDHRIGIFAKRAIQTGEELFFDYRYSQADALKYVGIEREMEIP

With `Cc1cc(C)c(CNC(=O)c2cc(-c3cn(C)c(=O)c4[nH]ccc34)cc3[nH]ccc23)c(=O)[nH]1`, the IC50 in assay [1] was 83 nM; in assay [2], more than 300 nM.

In the case of `Cc1[nH]c(=O)c(CNC(=O)c2cc(-c3cn(C)c(=O)c4[nH]ccc34)cc3c2ccn3C2CCCC2)c2c1CCCC2`, the IC50 is 8.3 nM in assay [1] and more than 300 nM in assay [2].

As for `CCC(CC)n1ccc2c(C(=O)NCc3c(C)cc(C)[nH]c3=O)cc(-c3cn(C)c(=O)c4[nH]ccc34)cc21`, the IC50 stood at 3 nM in assay [1] and 154 nM in assay [2].

On to `Cc1[nH]c(=O)c(CNC(=O)c2cc(-c3cn(C)c(=O)c4[nH]ccc34)cc3[nH]ccc23)c2c1CCCC2`, for which the IC50 is 100 nM in assay [1] and more than 300 nM in assay [2].

For `CCC(C)n1ccc2c(C(=O)NCc3c4c(c(C)[nH]c3=O)CCCC4)cc(-c3cn(C)c(=O)c4[nH]ccc34)cc21` (configuration not stated), the IC50 was 5.2 nM in assay [1] and more than 300 nM in assay [2].

Take `CCCC(C)n1ccc2c(C(=O)NCc3c(C)cc(C)[nH]c3=O)cc(-c3cn(C)c(=O)c4[nH]ccc34)cc21` (configuration not stated): the IC50 in assay [1] was determined as 2.8 nM; in assay [2], 173 nM.

`Cc1[nH]c(=O)c(CNC(=O)c2cc(-c3cn(C)c(=O)c4[nH]ccc34)cc3c2ccn3CC2CCCCC2)c2c1CCCC2`: the IC50 was 80 nM in assay [1] and more than 300 nM in assay [2].

For `CCC(C)n1cc(C)c2c(C(=O)NCc3c(C)cc(C)[nH]c3=O)cc(-c3cn(C)c(=O)c4[nH]ccc34)cc21` (configuration not stated), the figures for the IC50 in assay [1] and in assay [2] were 1.1 nM and more than 300 nM, respectively.

As to `Cc1[nH]c(=O)c(CNC(=O)c2cc(-c3cn(C)c(=O)c4[nH]ccc34)cc3[nH]cc(C)c23)c2c1CCCC2`, the IC50 was more than 100 nM in assay [1] and more than 300 nM in assay [2].

`Cc1cc(C)c(CNC(=O)c2cc(-c3cn(C)c(=O)c4[nH]ccc34)cc3c2c(C)cn3CC2CCCCC2)c(=O)[nH]1`: the figures for the IC50 in assay [1] and in assay [2] were 12 nM and more than 300 nM, respectively.

In the case of `Cc1[nH]c(=O)c(CNC(=O)c2cc(-c3cn(C)c(=O)c4[nH]ccc34)cc3c2cnn3C2CCCC2)c2c1CCCC2`, the IC50 in assay [1] was 46 nM; in assay [2], more than 300 nM.

As for `Cc1cc(C)c(CNC(=O)c2cc(-c3cn(C)c(=O)c4[nH]ccc34)cc3[nH]cc(C)c23)c(=O)[nH]1`, the values for the IC50 in assay [1] and in assay [2] were more than 100 nM and more than 300 nM, respectively.

`CCCC(C)n1ccc2c(C(=O)NCc3c4c(c(C)[nH]c3=O)CCCC4)cc(-c3cn(C)c(=O)c4[nH]ccc34)cc21` (configuration not stated): the values for the IC50 in assay [1] and in assay [2] were 9.3 nM and more than 300 nM, respectively.

For `Cc1cc(C)c(CNC(=O)c2cc(-c3cn(C)c(=O)c4[nH]ccc34)cc3c2ccn3C2CCCC2)c(=O)[nH]1`, the IC50 in assay [1] is 5 nM; in assay [2], 278 nM.

For `Cc1cc(C)c(CNC(=O)c2cc(-c3cn(C)c(=O)c4[nH]ccc34)cc3c2ccn3CC2CCCCC2)c(=O)[nH]1`, the IC50 was determined as 63 nM in assay [1] and 187 nM in assay [2].

Take `Cc1cc(C)c(CNC(=O)c2cc(-c3cn(C)c(=O)c4[nH]ccc34)cc3c2cnn3C2CCCC2)c(=O)[nH]1`: the IC50 in assay [1] is 37 nM; in assay [2] it was more than 300 nM.

As to `Cc1cc(C)c(CNC(=O)c2cc(-c3cn(C)c(=O)c4[nH]ccc34)cc3c2ccn3C(C)C)c(=O)[nH]1`, the IC50 is 5.7 nM in assay [1] and 214 nM in assay [2].

For `Cc1[nH]c(=O)c(CNC(=O)c2cc(-c3cn(C)c(=O)c4[nH]ccc34)cc3c2ccn3C(C)C)c2c1CCCC2`, the figures for the IC50 in assay [1] and in assay [2] were 12.3 nM and more than 300 nM, respectively.

As for `Cc1[nH]c(=O)c(CNC(=O)c2cc(-c3cn(C)c(=O)c4[nH]ccc34)cc3c2c(C)cn3CC2CCCCC2)c2c1CCCC2`, the IC50 in assay [1] was more than 100 nM; in assay [2], more than 300 nM.

With `CCC(C)n1cc(C)c2c(C(=O)NCc3c4c(c(C)[nH]c3=O)CCCC4)cc(-c3cn(C)c(=O)c4[nH]ccc34)cc21` (configuration not stated), the IC50 in assay [1] was 7.9 nM; in assay [2], more than 300 nM.

With `CCC(CC)n1ccc2c(C(=O)NCc3c4c(c(C)[nH]c3=O)CCCC4)cc(-c3cn(C)c(=O)c4[nH]ccc34)cc21`, the IC50 in assay [1] was 16 nM; in assay [2] it was more than 300 nM.
